Experiment: cn = amount concentration of the nth substance listed, in mol/dm3
Settings: 101.3 kPa, Liquid; for viscosity: Falling or rolling sphere viscometry; for mass density: Vibrating tube method

O=C([O-])[C@@H]1CCCN1.[K+] [potassium L-prolinate] + O
Settings	mass density [kg/m3]	viscosity [mPa·s]
298.15 K, c1 = 0.5001	1026.6	1.105
298.15 K, c1 = 1	1054.7	1.38
298.15 K, c1 = 1.5	1088	1.861
298.15 K, c1 = 2	1111.4	2.293
298.15 K, c1 = 2.5	1145.8	3.181
298.15 K, c1 = 3	1166.9	4.054
303.15 K, c1 = 0.5001	1025.2	0.9857
303.15 K, c1 = 1	1053	1.232
303.15 K, c1 = 1.5	1086.4	1.642
303.15 K, c1 = 2	1109.2	2.028
303.15 K, c1 = 2.5	1143.2	2.755
303.15 K, c1 = 3	1164.1	3.491
308.15 K, c1 = 0.5001	1023.5	0.8913
308.15 K, c1 = 1	1051	1.103
308.15 K, c1 = 1.5	1084.5	1.465
308.15 K, c1 = 2	1107	1.794
308.15 K, c1 = 2.5	1140.6	2.409
308.15 K, c1 = 3	1161.3	3.038
313.15 K, c1 = 0.5001	1021.6	0.8086
313.15 K, c1 = 1	1049	0.9949
313.15 K, c1 = 1.5	1082.2	1.31
313.15 K, c1 = 2	1104.7	1.601
313.15 K, c1 = 2.5	1137.9	2.136
313.15 K, c1 = 3	1158.4	2.662
318.15 K, c1 = 0.5001	1019.6	0.7351
318.15 K, c1 = 1	1046.8	0.9035
318.15 K, c1 = 1.5	1081.2	1.2
318.15 K, c1 = 2	1102.5	1.439
318.15 K, c1 = 2.5	1135.1	1.903
318.15 K, c1 = 3	1155.5	2.354
323.15 K, c1 = 0.5001	1017.6	0.6741
323.15 K, c1 = 1	1044.5	0.8251
323.15 K, c1 = 1.5	1078.8	1.085
323.15 K, c1 = 2	1100.4	1.296
323.15 K, c1 = 2.5	1132.2	1.707
323.15 K, c1 = 3	1152.5	2.102
328.15 K, c1 = 0.5001	1015.2	0.6219
328.15 K, c1 = 1	1042.2	0.7569
328.15 K, c1 = 1.5	1076.6	0.9922
328.15 K, c1 = 2	1098.5	1.196
328.15 K, c1 = 2.5	1129.2	1.541
328.15 K, c1 = 3	1149.4	1.887
333.15 K, c1 = 0.5001	1012.8	0.5764
333.15 K, c1 = 1	1039.9	0.7002
333.15 K, c1 = 1.5	1074.7	0.9175
333.15 K, c1 = 2	1095.8	1.093
333.15 K, c1 = 2.5	1126.2	1.4
333.15 K, c1 = 3	1146.3	1.704
338.15 K, c1 = 0.5001	1010.4	0.5373
338.15 K, c1 = 1	1037.4	0.6493
338.15 K, c1 = 1.5	1073.7	0.8552
338.15 K, c1 = 2	1093.6	1.009
338.15 K, c1 = 2.5	1123	1.278
338.15 K, c1 = 3	1143.1	1.549
343.15 K, c1 = 0.5001	1008	0.5039
343.15 K, c1 = 1	1035.5	0.608
343.15 K, c1 = 1.5	1071.9	0.7966
343.15 K, c1 = 2	1094.3	0.9587
343.15 K, c1 = 2.5	1119.9	1.173
343.15 K, c1 = 3	1139.8	1.414
348.15 K, c1 = 0.5001	1005.6	0.4733
348.15 K, c1 = 1	1035.7	0.5792
348.15 K, c1 = 1.5	1070.5	0.7486
348.15 K, c1 = 2	1092.4	0.8972
348.15 K, c1 = 2.5	1116.6	1.082
348.15 K, c1 = 3	1136.5	1.299

Source: the NIST ThermoML archive (doi:10.1016/j.fluid.2015.04.021)
